Source: PMC11839907, “Deciphering the tight metabolite‐level regulation of glucose‐1‐phosphate adenylyltransferase (GlgC) for glycogen synthesis in cyanobacteria” (The Febs Journal, 2024)
Like-named read-outs stand apart in the source and are kept apart here.

Experiments:
GlgC [1] = target: T1, GlgC (Synechocystis sp. PCC 6803, UniProt P52415); experiment: continuous GlgC-GlgA1 / pyruvate kinase / LDH coupled assay, A340; type: biochemical
T1 construct: shorter variant lacking first 10 residues of P52414, starts VKRVLAIILGG (primer 3); N-terminal His-tag (pET28a), E. coli Rosetta-gami (DE3); active as tetramer
T1 sequence (P52415 11-439): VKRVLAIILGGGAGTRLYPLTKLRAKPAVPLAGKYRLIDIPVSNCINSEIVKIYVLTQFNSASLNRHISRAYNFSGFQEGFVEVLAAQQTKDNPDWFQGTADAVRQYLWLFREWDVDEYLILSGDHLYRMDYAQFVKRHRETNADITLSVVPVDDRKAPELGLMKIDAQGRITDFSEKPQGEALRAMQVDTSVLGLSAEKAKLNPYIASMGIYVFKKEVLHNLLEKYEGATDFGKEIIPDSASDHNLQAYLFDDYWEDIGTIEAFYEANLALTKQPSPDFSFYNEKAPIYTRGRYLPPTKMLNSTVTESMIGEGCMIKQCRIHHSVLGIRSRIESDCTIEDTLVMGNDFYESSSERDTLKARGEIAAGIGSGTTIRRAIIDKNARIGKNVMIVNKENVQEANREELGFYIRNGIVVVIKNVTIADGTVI

GlgC [2] = target: T1, GlgC; experiment: as above; type: biochemical; conditions: read-out: 3-PGA (mM) / 0.00

O=C(O)[C@H](O)COP(=O)(O)O [3-PGA]
EC50 (GlgC [1]): 430 µM

O=P(O)(O)OC[C@H]1OC(O)(CO)[C@@H](O)[C@@H]1O (stereo partly drawn) [Fru-6P]
EC50 (GlgC [1]; activator, no 3-PGA, 0.25 mM Glc-1P, 2 mM ATP, 12 mM MgCl2, pH 8.0, 30 °C): 2300 µM

O=P(O)(O)O [Pi]
IC50 (GlgC [2]): 0.42 mM
